Common to all, as to assay: NCI anticancer screen, dose series, 48 h
The subject of assay [1] is SK-MEL-28 melanoma.
Assay [2] concerns UACC-257 melanoma.
In assay [3] the test system is MDA-N.
Assay [4] has as its system HCC-2998 colon.
Assay [5] deals with SNB-19 CNS.
In assay [6] the test system is ACHN renal.
Assay [7] relates to SN12C renal.
In assay [8] the test system is SF-268 CNS.
For assay [9], the system named is 786-0 renal.
For assay [10], the system named is A549 NSCLC.
Assay [11] relates to SK-MEL-2 melanoma.

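Method: 48-hour compound exposure of cells in 96-well plates, five concentrations, linear interpolation of endpoints. Here, GI50 denotes the concentration required for 50% inhibition of growth. TGI: concentration producing complete growth inhibition.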

As for `O=C(COc1cc(=O)oc2ccccc12)c1ccccc1`, the TGI in assay [1] is > 100 µM; in assay [2] it was > 100 µM; in assay [3], > 100 µM; in [4], > 100 µM; in assay [5], 48.9 µM; in assay [6], 36.4 µM. Besides, the TGI in assay [7], in assay [8], in [9], in [10] and in assay [11] was > 100 µM throughout.

As to `Cc1nc2c(Cl)cc(Cl)cc2c2c1CCO2`, the TGI in [1], in assay [2], in assay [3], in assay [4], in [5] and in [6] was > 100 µM throughout. In addition, the TGI in [7], in assay [8], in assay [9], in [10] and in assay [11] was > 100 µM throughout.

Consider `N=c1oc2ccc3ccccc3c2cc1-c1nc2ccccc2c(=O)[nH]1`, for which the TGI was > 100 µM in assay [1]; > 100 µM in [2]; > 100 µM in assay [3]; > 100 µM in assay [4]; > 100 µM in assay [5]; 34 µM in assay [6]. Moreover, the TGI is > 100 µM in [7]; > 100 µM in [8]; > 100 µM in assay [9]; 73.3 µM in [10]; 31.8 µM in assay [11].

Turning to `COc1cc(C[C@@]2(C)[C@@H]3CCC[C@H](CO)[C@@]3(C)CC[C@@H]2C)c(Cl)c(OC)c1`, the TGI was determined as 60.9 µM in assay [1]; 35.2 µM in assay [2]; 30.1 µM in assay [3]; 29.8 µM in assay [4]; 33.8 µM in assay [5]; 29.4 µM in assay [6]. Further, the TGI is 30 µM in assay [7]; 30.8 µM in assay [8]; 29.1 µM in assay [9]; 29.6 µM in assay [10]; 33.5 µM in [11].

For `CCC1c2[nH]c3ccccc3c2C[C@H]2C(=O)NC(C)C(=O)N12` (stereo partly specified), the TGI in assay [1], in assay [2], in assay [3], in assay [4], in assay [5] and in assay [6] was > 100 µM in each case. The TGI in assay [7], in [8], in [9], in assay [10] and in assay [11] was > 100 µM each time.

Take `Cc1[nH]n(-c2nc(-c3ccccc3)cc(=O)[nH]2)c(=O)c1CCO`: the TGI in assay [1], in assay [2], in assay [3], in [4], in assay [5] and in assay [6] was > 100 µM in each case. Moreover, the TGI in [7], in assay [8], in assay [9], in assay [10] and in assay [11] was > 100 µM throughout.

Consider `CC(C)(C)OC(=O)NC(CSCc1ccc(C(=O)c2ccccc2)cc1)C(=O)N1CCN(CCCCN2c3ccccc3Sc3cc(N=[N+]=[N-])ccc32)CC1` (stereo unspecified), for which the TGI in assay [1], in [2], in assay [3], in [4], in assay [5] and in assay [6] was > 100 µM throughout. Further, the TGI in assay [7], in assay [8], in [9], in [10] and in assay [11] was > 100 µM in each case.

As for `ClCCCN1CCN(CCCl)CC1`, the TGI is > 1000 µM in assay [1]; > 1000 µM in assay [2]; 742 µM in assay [3]; 997 µM in assay [4]; > 1000 µM in assay [5]; 265 µM in assay [6]. For the same compound, the TGI in assay [7] was 626 µM; in assay [8], > 892 µM; in assay [9], 427 µM; in assay [10] it was > 851 µM; in [11], 760 µM. The GI50 in assay [5] is 99.1 µM; in assay [6], 7.09 µM; in [7] it was 8.8 µM; in [8], 38.6 µM; in assay [10] it was 96.2 µM.

For `O=[N+]([O-])c1ccc2c(c1)nc1n2C(c2c(F)cccc2F)SC1` (stereo unspecified), the TGI in [1], in [2], in [3], in assay [4], in assay [5] and in assay [6] was > 100 µM each time. Further, the TGI in [7], in [8], in assay [9], in [10] and in [11] was > 100 µM in each case.

As to `COc1cc(/C=C2\C(=O)N(c3cccc(NC(C)=O)c3)C(c3ccccc3)S2(=O)=O)cc(OC)c1OC` (stereo unspecified), the TGI in assay [1], in assay [2], in assay [3], in assay [4], in [5] and in assay [6] was > 100 µM each time. Further, the TGI in assay [7], in assay [9], in assay [10] and in assay [11] was > 100 µM each time.

`CN1C/C(=C\c2cccs2)C2=NN(c3ccccc3)C(c3cccs3)C2C1` (stereo unspecified): the TGI in assay [1] is > 100 µM; in assay [2], > 100 µM; in assay [3], 3.99 µM; in assay [4] it was > 100 µM; in assay [5] it was > 100 µM; in assay [6], > 100 µM. In addition, the TGI was > 100 µM in assay [7]; > 40.6 µM in [8]; > 44.7 µM in assay [9]; > 100 µM in [10]; > 100 µM in assay [11].

In the case of `Nc1cc(OCC2CCCCC2)nc(N)n1`, the TGI in assay [1], in assay [2], in assay [3], in assay [4], in assay [5] and in assay [6] was > 100 µM throughout. The TGI in [7], in assay [8], in assay [9], in assay [10] and in assay [11] was > 100 µM each time.

These data come from PubChem BioAssay (NCI).
